Series [1] deals with INS‐1E β‐cells. Put plainly: ICC of Antp‐QBP1 uptake (anti‐biotin) in INS‐1E β‐cells. Type of series: cell-based, rat. The note with it: 48 h; for anti‐biotin (Red‐647) fluorescence intensity per cell: uptake by ICC. The protocol: (§1) Cells were seeded in 24‐well plates (Corning, cat. #3526) on 12 mm coverslips pre‐treated with 1 mg/mL poly‐D‐lysine (Merck, cat. #P2636) in borate buffer (pH 8.0) at a density of 200,000 cells/mL. […] Primary antibodies against hIAPP (rabbit anti‐hIAPP, 1:400; Sigma‐Aldrich), biotin (goat anti‐biotin, 1:200; Invitrogen, cat. # 31852), oligomers (A11, 1:400, Invitrogen, cat. # AHB0052) and fibrils (OC, 1:200, Millipore, cat. # AB2286) were applied overnight at 4°C. Fluorophore‐conjugated secondary antibodies (Invitrogen) were added for 1 h at RT in darkness, followed by DAPI nuclear staining for 15 min. Coverslips were mounted with ProLong Gold (Life Technologies) and imaged using either a Leica DMI 6000 fluorescence microscope or a Leica Stellaris 8 stimulated emission depletion (STED) super‐resolution microscope, both equipped with a 40× oil‐immersion objective.
ThT‐stained and ICC samples were imaged using a Leica Stellaris 8 STED super‐resolution confocal microscope (Leica Microsystems, Germany). For ThT imaging, samples in Ibidi μ‐Slide 4 Well ibiTreat coverslips were excited at 488 nm and emission was collected between 509–580 nm. For ICC, fluorophores were excited at 405 nm (DAPI; 420–480 nm, HyD S1), 488 nm (Alexa Fluor 488/FITC; 500–550 nm, HyD S2) and 653 nm (Alexa Fluor 647; 665–750 nm, HyD X3), all acquired sequentially in counting mode to prevent spectral overlap. […] Z‐stacks were collected in optimized mode to generate 3D reconstructions of ThT fluorescence and ICC labeling. Image processing and quantitative analysis were conducted using ImageJ/Fiji (NIH, USA). Specifically, a custom Fiji macro based on the “Find Maxima” algorithm was implemented to detect local intensity peaks across the selected fluorescence channels. Fluorescence intensity per cell (a.u.) was calculated as the total signal per field divided by the number of DAPI‐positive nuclei, and the number of fluorescence spots per cell was defined as total local maxima per field normalized to nuclei count. […]

The subject of the next series is INS‐1E‐hIAPP cells. Description: ICC of Antp‐QBP1 uptake in INS‐1E‐hIAPP cells. The class given is cell-based, rat. The note with it: Antp‐QBP1 10 µM, 48 h. On the procedure:
(§2) Rat insulinoma–derived pancreatic β‐cell lines (INS‐1E, INS‐1E‐hIAPP, and INS‐1E‐Ct) were kindly provided by Dr. Anna Novials (IDIBAPS, Barcelona) and characterized as previously described. INS‐1E‐hIAPP cells, which stably express human IAPP, were used as an overexpression model, whereas INS‐1E‐Ct cells transfected with an empty vector served as controls.
as §1

The subject of series [2] is INS‐1E β‐cells. Description: AlamarBlue metabolic activity, exogenous hIAPP oligomers. The protocol: Dried hIAPP or rIAPP peptide (0.5 mg) was reconstituted in 10 mM phosphate‐buffered saline (PBS, pH 7.4) with 2% DMSO and 2 mM sodium azide to a final concentration of 300 µM. rIAPP was included as a non‐amyloidogenic control peptide. After centrifugation at 16 000 x g for 50 min at 4°C to remove preformed aggregates, the supernatant (designated as “time zero”)—primarily populated by monomers—was used to initiate amyloidogenesis. Samples were vortexed and incubated at 25°C for 7 days without agitation to allow gradual formation of oligomers and fibrils. […] Aliquots were collected at different time points for biochemical characterization and β‐cells assays. For β‐cell assays involving extracellular hIAPP oligomers, samples were sonicated before use to disrupt early fibrils and enrich for oligomeric species.
(§3) The fusion peptide was N‐terminally biotinylated and the two peptides were separated by two glycine residues as flexible linkers to minimize steric hindrance: Biotin‐[…]. • – Cell culture . […] Viability was assessed using the CellTiter‐Glo Luminescent Cell Viability Assay (Promega, Madison, WI, USA), which quantifies ATP content as an indicator of metabolically active cells, and AlamarBlue (Invitrogen, Thermo Fisher), based on the reduction of resazurin to the fluorescent product resorufin in metabolically active cells, following the manufacturer's instructions. Luminescence (CellTiter‐Glo) and fluorescence (AlamarBlue; Ex 560 nm / Em 590 nm) were recorded using a FLUOstar Omega microplate reader (BMG LABTECH). Morphological changes were monitored by phase‐contrast microscopy (Leitz DM IRB, Leica, Germany) equipped with a Peltier temperature controller (Linkam, UK) set to 37°C and a Leica K5 camera. Images from at least three fields per condition were acquired at 10× and 20× magnification and analyzed with Leica LAS AF Lite software.

A further series has as its system INS‐1E‐Ct cells. Put plainly: CellTiter‐Glo ATP viability, empty‐vector control cells. Type of series: cell-based, rat. The note with it: Antp‐QBP1 5–20 µM, 48 h.
Text: as §2
• – hIAPP overexpression conditions .

For series [3], the system named is INS‐1E β‐cells. Put plainly: CellTiter‐Glo ATP viability, exogenous hIAPP oligomers. The note with it: 48 h, 16.7 mM glucose. The protocol: Dried hIAPP or rIAPP peptide (0.5 mg) was reconstituted in 10 mM phosphate‐buffered saline (PBS, pH 7.4) with 2% DMSO and 2 mM sodium azide to a final concentration of 300 µM. rIAPP was included as a non‐amyloidogenic control peptide. After centrifugation at 16 000 x g for 50 min at 4°C to remove preformed aggregates, the supernatant (designated as “time zero”)—primarily populated by monomers—was used to initiate amyloidogenesis. Samples were vortexed and incubated at 25°C for 7 days without agitation to allow gradual formation of oligomers and fibrils. […] Aliquots were collected at different time points for biochemical characterization and β‐cells assays. […]
as §3, with “Morphological changes were monitored by phase‐contrast microscopy (Leitz DM IRB, Leica, Germany) equipped with a Peltier temperature controller (Linkam, UK) set to 37°C and a Leica K5 camera. Images from at least three fields per condition were acquired at 10× and 20× magnification and analyzed with Leica LAS AF Lite software.” left out

For a further series, the system named is Rin1056A β‐cells. Particulars: cited from earlier work.
Series [4] has as its system hIAPP‐induced cytotoxicity. The note with it: cited from earlier work.
Another series addresses T1, hIAPP (Homo sapiens, UniProt P10997).
T1 construct: hIAPP (1–37; cat. # RP11278); purchased GenScript (Netherlands) RP11278; host or cells: chemical synthesis
T1 sequence (P10997 34-70): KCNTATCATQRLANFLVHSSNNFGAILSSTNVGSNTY
Put plainly: 1D 1H NMR loss of hIAPP signal (oligomerization kinetics). Type of series: biochemical. The note with it: 50 µM hIAPP, three‐fold excess (150 µM) inhibitor, PBS, 37°C. On the procedure:
• – hIAPP/QBP1 interaction experiments. 1D ^1H and 2D ^1H‐^1H total correlation spectroscopy (TOCSY) (mixing time = 60 ms) and 2D ^1H‐^1H nuclear Overhauser effect spectroscopy (NOESY) (mixing times = 80 and 250 ms) spectra were recorded at 10°C in 90% H2O/ 10% D2O with 1 mM K2HPO4 and 1 mM sodium acetate buffer (pH 5.5) on 100 µM hIAPP (pre‐monomerized in a small volume of hexadeuterated DMSO) on a Bruker 800 MHz (^1H) spectrometer equipped with a ^1H, ^13C, ^15N cryoprobe, Neo console and z‐gradients. These conditions were chosen because they were previously reported to greatly slow the aggregation of hIAPP, affording time to allow the spectra to be recorded. The solutions also contained 100 µM DSS as the internal chemical shift reference. Spectra were assigned with the aid of the program POKY [62], and the assignments have been deposited in the BMRB database; with access code = 53405. […] The spectra were then analyzed for changes which could reveal atomic‐level details on the interaction between hIAPP and QBP1. • – hIAPP aggregation experiments. A second set of NMR experiments were performed in PBS (90% H2O/ 10% D2O) at 37°C. […] These experiments were performed on a Bruker 600 MHz (^1H) spectrometer equipped with a ^1H, ^13C, ^15N, ^31P cryoprobe, Neo console, and z‐gradients. The final sample pH was verified in situ based on the phosphate ^3 ^1P chemical shift.

Where [5] appears, read: peptide alone, 48 h, Alamar Blue HS.

We go through 6 compounds from PMC13326014 (Advanced Science, 2026).

Read-outs that look alike come from different tables or passages of the source. Peptide text beside a SMILES is read from it.

As to `CC[C@H](C)[C@H](NC(=O)CNC(=O)[C@@H]1CCCN1C(=O)[C@H](Cc1c[nH]c2ccccc12)NC(=O)[C@H](Cc1c[nH]c2ccccc12)NC(=O)[C@H](CCCCN)NC(=O)[C@H](Cc1c[nH]c2ccccc12)NC(=O)CNC(=O)CNC(=O)[C@H](CCCCN)NC(=O)[C@H](CCCCN)NC(=O)[C@H](Cc1c[nH]c2ccccc12)NC(=O)[C@H](CCCCN)NC(=O)[C@H](CCSC)NC(=O)[C@H](CCCNC(=N)N)NC(=O)[C@H](CCCNC(=N)N)NC(=O)[C@H](CC(N)=O)NC(=O)[C@H](CCC(N)=O)NC(=O)[C@H](Cc1ccccc1)NC(=O)[C@H](Cc1c[nH]c2ccccc12)NC(=O)[C@@H](NC(=O)[C@H](CCCCN)NC(=O)[C@@H](NC(=O)[C@H](CCC(N)=O)NC(=O)[C@H](CCCNC(=N)N)NC(=O)CCCC[C@@H]1SC[C@@H]2NC(=O)N[C@@H]21)[C@@H](C)CC)[C@@H](C)CC)C(=O)N[C@@H](Cc1ccccc1)C(=O)O` [Antp‐QBP1], in the series on INS‐1E β‐cells [1] (10 µM Antp‐QBP1 alone or with 10 µM hIAPP), the “number of intracellular Red‐647 fluorescent spots per cell vs hIAPP alone” value is “significantly increased”. In addition, the “anti‐biotin (Red‐647) fluorescence intensity per cell” value was 400–600 a.u./cell in the series with INS‐1E β‐cells [1] (10 µM Antp‐QBP1 alone) and about 200 a.u./cell in the series on INS‐1E β‐cells [1] (10 µM Antp‐QBP1 with 10 µM hIAPP oligomers). Also, in the series on INS‐1E‐hIAPP cells, the “intracellular delivery by immunostaining” value was “efficient intracellular delivery”. Further, the “effect of peptide alone on metabolic activity” value (“effect … on metabolic activity” below) with INS‐1E β‐cells [2] (setting [5]) is “no significant effect”. Besides, the “effect on ATP levels in control (Ct) cells” value in the series on INS‐1E‐Ct cells was “did not alter ATP levels”. Moreover, the “effect of peptide alone on ATP levels” value with INS‐1E β‐cells [3] is on record as “did not alter ATP levels”.
On to `CC[C@H](C)[C@H](NC(=O)CNC(=O)[C@@H]1CCCN1C(=O)[C@H](Cc1c[nH]c2ccccc12)NC(=O)[C@H](Cc1c[nH]c2ccccc12)NC(=O)[C@H](CCCCN)NC(=O)[C@H](Cc1c[nH]c2ccccc12)NC(C)=O)C(=O)N[C@@H](Cc1ccccc1)C(N)=O` [QBP1] (Ac-WKWWPGIF-NH2), for which the “effect … on metabolic activity” value with INS‐1E β‐cells [2] (setting [5]) was “no significant effect”.
For `CC(C)C[C@H](NC(=O)[C@H](CC(N)=O)NC(=O)[C@H](CC(N)=O)NC(=O)[C@H](CO)NC(=O)[C@H](CO)NC(=O)[C@H](CCCNC(=N)N)NC(=O)[C@@H](NC(=O)[C@H](CC(C)C)NC(=O)[C@H](Cc1ccccc1)NC(=O)[C@H](CC(N)=O)NC(=O)[C@H](C)NC(=O)[C@H](CC(C)C)NC(=O)[C@H](CCCNC(=N)N)NC(=O)[C@H](CCC(N)=O)NC(=O)[C@@H](NC(=O)[C@H](C)NC(=O)[C@@H]1CSSC[C@H](NC(=O)[C@@H](N)CCCCN)C(=O)N[C@@H](CC(N)=O)C(=O)N[C@@H]([C@@H](C)O)C(=O)N[C@@H](C)C(=O)N[C@@H]([C@@H](C)O)C(=O)N1)[C@@H](C)O)C(C)C)C(=O)NCC(=O)N1CCC[C@H]1C(=O)N[C@H](C(=O)N[C@@H](CC(C)C)C(=O)N1CCC[C@H]1C(=O)N1CCC[C@H]1C(=O)N[C@H](C(=O)N[C@@H](CC(N)=O)C(=O)N[C@H](C(=O)NCC(=O)N[C@@H](CO)C(=O)N[C@@H](CC(N)=O)C(=O)N[C@H](C(=O)N[C@@H](Cc1ccc(O)cc1)C(N)=O)[C@@H](C)O)C(C)C)[C@@H](C)O)C(C)C` [rIAPP, reference compound], in the series with INS‐1E β‐cells [2], the “effect … on metabolic activity” value is “did not affect metabolic activity”.
Regarding D‐ANFLVH, in the series with Rin1056A β‐cells, the “molar excess relative to IAPP required to prevent toxicity” value is recorded as “ten‐fold molar excess”.
As for FLPNF, in series [4], the “concentration required to reduce hIAPP‐induced cytotoxicity” value is on record as “approximately 200 µM”.
epigallocatechin‐3‐gallate [EGCG]: on hIAPP, the “slowing of the rate of hIAPP oligomerization (NMR signal loss)” value is given as about 50%.
